Laboratory results published in ChEMBL document CHEMBL1201862, “PubChem BioAssay data set” (2004).
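Following 48 hours of exposure in 96-well plates, responses at five concentrations were used to interpolate endpoints linearly. GI50 marks 50% less growth.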 Active and inactive are the calls of the source. Rule as the data show it: active = GI50 up to about 1.1 µM and inactive = higher.

How the values were obtained:
Experiment in all cases: NCI-60 cell line screen, 48 h
UACC-257 = test system: UACC-257
CCRF-CEM = test system: CCRF-CEM
OVCAR-4 = test system: OVCAR-4
OVCAR-3 = test system: OVCAR-3
MCF7 = test system: MCF7
OVCAR-8 = test system: OVCAR-8
A549 = test system: A549
RPMI-8226 = test system: RPMI-8226
HOP-62 = test system: HOP-62
SNB-75 = test system: SNB-75
SK-MEL-5 = test system: SK-MEL-5
M14 = test system: M14
HCT-15 = test system: HCT-15
MDA-N = test system: MDA-N
UO-31 = test system: UO-31
SN12C = test system: SN12C
Hs-578T = test system: Hs-578T
LOX IMVI = test system: LOX IMVI
DU-145 = test system: DU-145
SK-MEL-28 = test system: SK-MEL-28
PC-3 = test system: PC-3
SR = test system: SR
OVCAR-5 = test system: OVCAR-5
ACHN = test system: ACHN
HT-29 = test system: HT-29
HCT-116 = test system: HCT-116
SW-620 = test system: SW-620
Malme-3M = test system: Malme-3M
IGROV-1 = test system: IGROV-1
NCI-H460 = test system: NCI-H460
SF-268 = test system: SF-268
SK-OV-3 = test system: SK-OV-3
HCC 2998 = test system: HCC 2998
HOP-92 = test system: HOP-92
COLO 205 = test system: COLO 205
786-0 = test system: 786-0
U-251 = test system: U-251
EKVX = test system: EKVX
KM12 = test system: KM12
SK-MEL-2 = test system: SK-MEL-2
SF-539 = test system: SF-539
SF-295 = test system: SF-295
NCI/ADR-RES = test system: NCI/ADR-RES
TK-10 = test system: TK-10
K562 = test system: K562
HL-60 = test system: HL-60
T47D = test system: T47D
UACC-62 = test system: UACC-62
MDA-MB-231 = test system: MDA-MB-231
NCI-H23 = test system: NCI-H23
MOLT-4 = test system: MOLT-4
MDA-MB-435 = test system: MDA-MB-435
NCI-H226 = test system: NCI-H226
SNB-19 = test system: SNB-19
A498 = test system: A498
BT-549 = test system: BT-549
RXF 393 = test system: RXF 393
CAKI-1 = test system: CAKI-1
NCI-H522 = test system: NCI-H522

Measured: GI50

CCN(CC)CCOCCn1c2c(c3ccccc31)CCCC2
inactive: UACC-257 21.9 µM | CCRF-CEM 18.8 µM | OVCAR-4 26 µM | OVCAR-3 35.5 µM | MCF7 18.2 µM | OVCAR-8 33.7 µM | A549 23.9 µM | RPMI-8226 20.4 µM | HOP-62 17.2 µM | SNB-75 34.8 µM | SK-MEL-5 13.5 µM | M14 16.9 µM | MDA-N 17.2 µM | UO-31 14.5 µM | SN12C 18.3 µM | Hs-578T 20 µM | LOX IMVI 19.5 µM | DU-145 30.9 µM | SK-MEL-28 17 µM | PC-3 17.8 µM | SR 16.3 µM | OVCAR-5 23.3 µM | ACHN 19.1 µM | HT-29 23.7 µM | HCT-116 15.8 µM | SW-620 17.1 µM | Malme-3M 15.6 µM | IGROV-1 18.9 µM | NCI-H460 22.8 µM | SF-268 36.1 µM | SK-OV-3 27.4 µM | HCC 2998 16.8 µM | HOP-92 20.9 µM | COLO 205 17.7 µM | 786-0 16.2 µM | U-251 17.2 µM | EKVX 40.2 µM | KM12 34.5 µM | SK-MEL-2 15.7 µM | SF-539 16.6 µM | SF-295 38.5 µM | NCI/ADR-RES 12.7 µM | TK-10 19.1 µM | K562 13.6 µM | HL-60 9.73 µM | T47D 20.6 µM | UACC-62 17 µM | MDA-MB-231 18 µM | NCI-H23 35.8 µM | MOLT-4 15.8 µM | MDA-MB-435 17.8 µM | NCI-H226 26.4 µM
16.3 µM: HCT-15

CC(C)C(N)C(=O)NC(CCC(=O)NCCCCC(N)C(=O)NCCCNc1ccc([N+](=O)[O-])c2[nH]c3ccccc3c(=O)c12)C(N)=O (configuration not stated)
41.2 µM: HCT-15
inactive: UACC-257 > 100 µM | CCRF-CEM 34.5 µM | OVCAR-4 20.6 µM | OVCAR-3 > 100 µM | OVCAR-8 31.2 µM | A549 27.3 µM | RPMI-8226 33.7 µM | HOP-62 92.3 µM | SNB-19 35.2 µM | SNB-75 48.9 µM | SK-MEL-5 > 100 µM | M14 75.3 µM | UO-31 24.4 µM | LOX IMVI 21 µM | A498 59 µM | DU-145 > 100 µM | SK-MEL-28 > 100 µM | PC-3 56.6 µM | OVCAR-5 > 100 µM | ACHN 40.6 µM | HCT-116 21.7 µM | SW-620 41.6 µM | NCI-H460 12.5 µM | SF-268 58.7 µM | SK-OV-3 44.3 µM | HCC 2998 40.2 µM | BT-549 13.7 µM | HOP-92 24.4 µM | RXF 393 11 µM | COLO 205 68.9 µM | 786-0 35.8 µM | U-251 26.7 µM | EKVX > 100 µM | KM12 > 100 µM | SK-MEL-2 91.6 µM | SF-295 55.7 µM | CAKI-1 > 100 µM | NCI/ADR-RES 43 µM | TK-10 > 100 µM | K562 > 100 µM | T47D > 100 µM | UACC-62 25.2 µM | MDA-MB-231 41.2 µM | NCI-H23 88.7 µM | MDA-MB-435 67.9 µM | NCI-H226 50.9 µM

CC(C)(C)/N=C1\C(=O)C2(C)CCC1C2(C)C (configuration not stated)
> 100 µM: HCT-15
inactive: UACC-257 > 100 µM | OVCAR-4 > 100 µM | OVCAR-3 > 100 µM | MCF7 16.8 µM | OVCAR-8 > 100 µM | A549 > 100 µM | RPMI-8226 > 100 µM | HOP-62 > 100 µM | SNB-19 > 100 µM | SK-MEL-5 > 100 µM | M14 > 100 µM | UO-31 > 100 µM | LOX IMVI > 100 µM | A498 16.4 µM | DU-145 > 100 µM | SK-MEL-28 > 100 µM | PC-3 > 100 µM | SR > 100 µM | OVCAR-5 > 100 µM | ACHN > 100 µM | HT-29 > 100 µM | HCT-116 > 100 µM | SW-620 > 100 µM | Malme-3M > 100 µM | IGROV-1 > 100 µM | NCI-H460 > 100 µM | SF-268 > 100 µM | SK-OV-3 > 100 µM | HCC 2998 > 100 µM | BT-549 > 100 µM | RXF 393 > 100 µM | COLO 205 > 100 µM | 786-0 > 100 µM | U-251 > 100 µM | EKVX > 100 µM | KM12 > 100 µM | SK-MEL-2 > 100 µM | SF-539 > 100 µM | SF-295 > 100 µM | CAKI-1 > 100 µM | NCI/ADR-RES > 100 µM | TK-10 > 100 µM | K562 > 100 µM | T47D > 100 µM | UACC-62 14.3 µM | MDA-MB-231 > 100 µM | NCI-H23 > 100 µM | MDA-MB-435 > 100 µM | NCI-H226 > 100 µM

O=C(C[n+]1ccccc1)N/N=C(\C(=O)NC1=C(Cl)C(=O)c2ccccc2C1=O)c1c(O)c2ccc(O)cc2oc1=O
2.42 µM: HCT-15
active: SK-MEL-5 1.06 µM
inactive: UACC-257 3.03 µM | CCRF-CEM 4.94 µM | OVCAR-4 3.08 µM | OVCAR-3 3.37 µM | MCF7 3.48 µM | OVCAR-8 3.66 µM | A549 3.03 µM | RPMI-8226 5.96 µM | HOP-62 10.4 µM | SNB-75 6.5 µM | M14 3.5 µM | UO-31 12.2 µM | SN12C 4.44 µM | LOX IMVI 2.63 µM | A498 19.9 µM | DU-145 3.59 µM | SK-MEL-28 2.94 µM | PC-3 2.77 µM | SR 4.19 µM | OVCAR-5 12.3 µM | ACHN 5.11 µM | HT-29 3.08 µM | HCT-116 2.99 µM | SW-620 3.89 µM | IGROV-1 2.41 µM | NCI-H460 2.52 µM | SF-268 9.77 µM | SK-OV-3 14.1 µM | NCI-H522 2.07 µM | HCC 2998 3.4 µM | BT-549 5.14 µM | HOP-92 14.8 µM | RXF 393 9.35 µM | COLO 205 3.05 µM | 786-0 4.93 µM | U-251 5.07 µM | EKVX 12.9 µM | KM12 4.85 µM | SK-MEL-2 2.31 µM | SF-539 4.28 µM | SF-295 3.05 µM | CAKI-1 6.64 µM | NCI/ADR-RES 4.08 µM | TK-10 23.7 µM | K562 1.91 µM | HL-60 3.43 µM | T47D 5.56 µM | UACC-62 1.84 µM | MDA-MB-231 7.73 µM | NCI-H23 2.52 µM | MOLT-4 11 µM | MDA-MB-435 2.01 µM | NCI-H226 5.56 µM

NS(=O)(=O)c1ccc(/C=C/c2ccc(O)cc2)cc1
inactive: UACC-257 30.4 µM | OVCAR-3 19 µM | MCF7 17.5 µM | HOP-62 31.5 µM | SNB-19 44.4 µM | SNB-75 15.6 µM | SK-MEL-5 11.4 µM | M14 24.4 µM | MDA-N 33 µM | UO-31 8.73 µM | SN12C 18.9 µM | A498 41.5 µM | DU-145 16.2 µM | SK-MEL-28 27.5 µM | PC-3 18.8 µM | OVCAR-5 40.6 µM | HCT-116 23 µM | SW-620 25.6 µM | Malme-3M 26.9 µM | NCI-H460 18.7 µM | SK-OV-3 23.9 µM | HCC 2998 19.7 µM | HOP-92 10.7 µM | RXF 393 51.6 µM | COLO 205 19.9 µM | 786-0 10.7 µM | EKVX 22.7 µM | SK-MEL-2 25.9 µM | SF-295 21.3 µM | NCI/ADR-RES 14 µM | TK-10 43.8 µM | T47D 21.1 µM | MDA-MB-231 14.8 µM

O=C1c2c(O)cccc2Cc2cccc(O)c21 [ANTHRALIN]
active: UACC-257 0.216 µM | OVCAR-4 0.447 µM | OVCAR-3 0.382 µM | MCF7 0.255 µM | OVCAR-8 0.321 µM | A549 0.334 µM | RPMI-8226 0.321 µM | HOP-62 0.347 µM | SNB-19 0.435 µM | SK-MEL-5 0.178 µM | M14 0.256 µM | MDA-N 0.321 µM | UO-31 0.3 µM | Hs-578T 0.29 µM | DU-145 0.264 µM | SK-MEL-28 0.783 µM | SR 0.31 µM | OVCAR-5 0.57 µM | ACHN 0.319 µM | HT-29 0.322 µM | IGROV-1 0.375 µM | NCI-H460 0.334 µM | SF-268 0.376 µM | SK-OV-3 0.351 µM | RXF 393 0.32 µM | 786-0 0.386 µM | U-251 0.313 µM | EKVX 0.2 µM | KM12 0.355 µM | SF-539 0.273 µM | SF-295 0.269 µM | CAKI-1 0.337 µM | TK-10 0.684 µM | HL-60 0.259 µM | UACC-62 0.415 µM | NCI-H23 0.327 µM | MDA-MB-435 0.348 µM | NCI-H226 0.314 µM
inactive: A498 1.22 µM
